Assay results taken from US5045566A, “Novel imidate insecticides” (ICI Americas Inc., priority 1989, dated 1991).

Assays:
Type in all cases: in vivo
[1] = test system: Housefly [Musca domestica]; assay: Housefly contact mortality in dishes (HF), 48 hours; conditions: μg of test compound per 25 female flies
How it was run: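 Acetone solutions (with 0.01% peanut oil) dried onto dish bottoms, then 25 female flies, 1-2 days old, caged over the residue with sugar water. Mortality scored at 48 hours; LC50 from dosage-mortality curves, in μg per 25 female flies, top level 100 μg.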

[2] = test system: Black Bean Aphid [Aphis fabae (Scop.)]; assay: Black bean aphid spray test on nasturtium (BBA), 48 hours; conditions: percent of test compound in sprayed solution
How it was run: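 LC50, given as percent test compound in the sprayed liquid, was calculated from dosage-mortality curves using concentrations from 0.05% downward. Sprays in 50:50 acetone-water went to runoff on ~5 cm nasturtiums carrying 25-50 aphids of mixed ages, one day after infestation. Deaths were counted 48 h later under greenhouse conditions.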

[3] = test system: Tobacco Budworm [Heliothis virescens (Fabricius)] eggs; assay: Tobacco budworm eggs (TBW-E); conditions: percent in solution; 2-day old eggs
How it was run: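 LC50 is given as percent compound in the dipping solution, fitted from dosage-mortality curves. Two-day-old eggs on paper towel were dipped in acetone solutions (top concentration 0.1%), kept at 78° F on rearing medium, and scored after control hatch and larval feeding.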

[4] = test system: Cabbage Looper [Trichoplusia ni (Hubner)]; assay: Cabbage looper leaf dip (CL), 3-5 days; conditions: percent in solution, second-instar larvae
How it was run: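 LC50, as percent test compound in solution, derived from dosage-mortality curves; concentrations started at 0.1% and went lower. Five second-instar larvae per dish fed on acetone-water-dipped, dried squash cotyledons in a humid chamber. Deaths recorded 3-5 days post-infestation.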

[5] = test system: Maize weevil [Sitophilus zeamais (Motschulsky)]; assay: Maize weevil on dipped corn seeds (MW), 48 hours; conditions: percent in solution, adult weevils
Method: The compounds in Tables 1 and 2 above were tested for insecticidal activity using the following testing procedures. LC50 values, based on the results of these tests and calculated according to dosage-mortality curves, are expressed in Table 3.
Maize weevil [Sitophilus zeamais (Motschulsky)]:
Test compounds were diluted in a 50:50 acetone:water solution. Four corn seeds [Zea mays (L.)] which had been immersed in test solutions for 2-3 seconds and allowed to dry were placed in containers together with 10 adult weevils. The containers were covered and kept at a temperature of about 25° C. Mortality was recorded after 48 hours. Test concentrations ranged from 0.01% down to that at which 50% mortality occurred. The LC50 values are expressed below in Table 3 under the heading "MW" in terms of percent of the test compound in solution.

Row | Structure (SMILES) | LC50 HF [1] [µg] | LC50 BBA [2] [%] | LC50 TBW E (eggs) [3] [%] | LC50 CL [4] [%] | LC50 MW [5] [%]
1 | CC(C)C(=Nc1ccc(Cl)c(C(F)(F)F)c1)OCc1ccc(F)c(Oc2ccc(F)cc2)c1 [Compound 340] | 34 | 0.001 | 0.04 | 0.00037 | 0.0069
2 | CC(C)C(=Nc1cccc(Cl)c1)OCc1ccc(F)c(Oc2ccc(F)cc2)c1 [Compound 341] | 4 | 0.0005 | 0.023 | 0.0005 | > 0.01
3 | CC(C)C(=Nc1cccc(F)c1)OCc1ccc(F)c(Oc2ccc(F)cc2)c1 [Compound 342] | 4.1 | 0.0006 | 0.04 | 0.0008 | > 0.01
4 | Cc1ccc(Oc2cccc(COC(=Nc3ccc(C(C)(C)C)cc3)C(C)C)c2)cc1 [Compound 344] | > 100 | 0.008 | > 0.1 | 0.024 | > 0.01
5 | COc1ccc(Oc2cccc(COC(=Nc3ccc(C(C)(C)C)cc3)C(C)C)c2)cc1 [Compound 345] | > 100 | 0.006 | > 0.1 | 0.018 | > 0.01
6 | CCOc1ccc(N=C(OCc2cccc(Oc3ccccc3)c2)C(C)C)cc1Cl [Compound 368] | < 100 | 0.001 | 0.04 | 0.002 | > 0.01
7 | CCOc1ccc(N=C(OCc2cccc(Oc3ccccc3)c2)C(C)C)cc1 [Compound 371] | < 100 | 0.0004 | > 0.1 | 0.0022 | > 0.01
8 | CCOc1ccc(N=C(OCc2ccc(F)c(Oc3ccc(Cl)cc3)c2)C(C)C)cc1 [Compound 372] | > 100 | 0.001 | > 0.1 | > 0.1 | > 0.01
9 | CCOc1ccc(N=C(OCc2ccc(F)c(Oc3ccccc3)c2)C(C)C)cc1 [Compound 373] | < 100 | 0.001 | > 0.1 | > 0.1 | > 0.01
10 | CC(C)C(=Nc1ccc(I)c(Cl)c1)OCc1cccc(Oc2ccc(F)cc2)c1 [Compound 374] | < 100 | 0.0008 | 0.02 | 0.00058 | > 0.01
11 | CC(C)C(=Nc1ccc(F)c(Br)c1)OCc1ccc(F)c(Oc2ccc(Cl)cc2)c1 [Compound 379] | < 100 | 0.0006 | 0.02 | 0.00075 | > 0.01
12 | CC(C)C(=Nc1ccc(Br)c(Br)c1)OCc1ccc(F)c(Oc2ccc(F)cc2)c1 [Compound 383] | < 100 | 0.0006 | 0.038 | 0.00029 | > 0.01
13 | CC(C)C(=Nc1ccc(Br)c(Br)c1)OCc1ccc(F)c(Oc2ccccc2)c1 [Compound 384] | < 100 | 0.0008 | 0.025 | > 0.1 | > 0.01
14 | CC(C)C(=Nc1ccc(I)c(Cl)c1)OCc1ccc(F)c(Oc2ccc(F)cc2)c1 [Compound 385] | < 100 | > 0.05 | > 0.1 | > 0.1 | > 0.01
15 | CC(C)C(=Nc1cccc(Br)c1)OCc1ccc(F)c(Oc2ccc(Cl)cc2)c1 [Compound 386] | < 100 | 0.002 | > 0.1 | 0.0012 | > 0.01
16 | CC(C)C(=Nc1ccc(Cl)c(C(F)(F)F)c1)OCc1ccc(F)c(Oc2ccccc2)c1 [Compound 388] | < 100 | 0.0006 | > 0.1 | 0.0012 | > 0.01
17 | CC(C)C(=Nc1cccc(I)c1)OCc1cccc(Oc2ccc(Cl)cc2)c1 [Compound 389] | < 100 | 0.003 | > 0.1 | 0.00069 | > 0.01

Row | Structure (SMILES) | LC50 HF [1] [µg] | LC50 BBA [2] [%] | LC50 TBW E (eggs) [3] [%] | LC50 CL [4] [%] | LC50 MW [5] [%]
18 | CC(C)C(=Nc1cccc(Cl)c1)OCc1ccc(F)c(Oc2ccc(Cl)cc2)c1 [Compound 390] | < 100 | 0.0006 | 0.045 | 0.0021 | > 0.01
19 | CC(C)C(=Nc1ccc(C#N)cc1)OCc1ccc(F)c(Oc2ccc(Cl)cc2)c1 [Compound 392] | < 100 | 0.001 | 0.039 | 0.00034 | > 0.01
20 | CC(C)C(=Nc1ccc(C#N)cc1)OCc1cccc(Oc2ccc(Cl)cc2)c1 [Compound 393] | < 100 | > 0.05 | > 0.1 | 0.00037 | > 0.01
21 | CC(C)C(=Nc1ccc(C#N)cc1)OCc1ccc(F)c(Oc2ccc(F)cc2)c1 [Compound 394] | < 100 | 0.002 | 0.05 | 0.00025 | > 0.01
22 | CC(C)C(=Nc1ccc(F)c(Cl)c1F)OCc1ccc(F)c(Oc2ccc(Cl)cc2)c1 [Compound 395] | 8.6 | 0.0001 | 0.018 | < 0.1 | 0.004
23 | Cc1cc(N=C(OCc2ccc(F)c(Oc3ccc(F)cc3)c2)C(C)C)ccc1F [Compound 396] | < 100 | 0.0002 | < 0.1 | 0.0017 | > 0.01
24 | Cc1cc(N=C(OCc2cccc(Oc3ccc(Cl)cc3)c2)C(C)C)ccc1F [Compound 397] | < 100 | 0.002 | < 0.1 | 0.0019 | > 0.01
25 | CC(C)C(=Nc1ccc(F)c(Br)c1)OCc1cccc(Oc2ccc(Cl)cc2)c1 [Compound 398] | < 100 | 0.002 | < 0.1 | < 0.1 | > 0.01
26 | Cc1cc(N=C(OCc2ccc(F)c(Oc3ccc(Cl)cc3)c2)C(C)C)ccc1F [Compound 399] | < 100 | 0.0003 | 0.025 | 0.0012 | > 0.01
27 | Cc1cc(N=C(OCc2ccc(F)c(Oc3ccccc3)c2)C(C)C)ccc1F [Compound 400] | < 100 | 0.0003 | 0.025 | 0.0007 | > 0.01
28 | Cc1cccc(N=C(OCc2ccc(F)c(Oc3ccc(Cl)cc3)c2)C(C)C)c1 [Compound 401] | < 100 | 0.0006 | 0.04 | 0.0017 | > 0.01
29 | Cc1ccc(N=C(OCc2cccc(Oc3ccc(F)cc3)c2)C(C)C)cc1Cl [Compound 402] | < 100 | 0.0006 | > 0.1 | > 0.1 | > 0.01
30 | Cc1ccc(N=C(OCc2cccc(Oc3ccc(Cl)cc3)c2)C(C)C)cc1Cl [Compound 403] | < 100 | 0.001 | > 0.1 | > 0.1 | > 0.01
31 | Cc1ccc(N=C(OCc2ccc(F)c(Oc3ccc(Cl)cc3)c2)C(C)C)cc1Cl [Compound 404] | < 100 | 0.002 | 0.025 | > 0.1 | > 0.01
32 | Cc1cccc(N=C(OCc2cccc(Oc3ccc(F)cc3)c2)C(C)C)c1 [Compound 405] | < 100 | 0.0025 | > 0.1 | > 0.1 | > 0.01
33 | Cc1ccc(N=C(OCc2ccc(F)c(Oc3ccc(Cl)cc3)c2)C(C)C)cc1C [Compound 406] | < 100 | 0.001 | < 0.1 | > 0.1 | > 0.01
